Literature values in patent publication US10471178B2, “Implantable medical devices with increased immune tolerance, and methods for making and implanting” (AMPIO PHARMACEUTICALS, INC., priority 2011, dated 2019).

System: memory but not naive human T lymphocytes
Conditions: memory vs naive human T lymphocytes

## C[C@@H]1NC(=O)[C@H](CC(=O)O)NC1=O [DA-DKP, Aspartate, Alanine-Diketopiperazine]
  immunomodulatory effect on human T lymphocytes: immunomodulatory for memory but not naive human T lymphocytes
